According to patent publication US11730759B1, “Sulfasalazine-loaded zinc oxide nanoparticles for the treatment of ulcerative colitis” (priority 2023, dated 2023):

Test system: ulcerative colitis (UC) rats
Format: in vivo
Details: sulfasalazine 100 mg/kg P.O., loaded ZnONPs 100 mg/kg P.O. containing 12.2 mg sulfasalazine/kg
Method: Forty male albino rats were randomly divided into four groups (n=10 rats), with all groups were treated for 7 days, as follows:
Group 1: Rats received saline daily for 21 consecutive days by rectal catheter and served as the normal control group (negative control).
Group 2: The disease group received 1 ml acetic acid 3% for three days and served as the ulcerative colitis (UC) control group (positive control).
Group 3: In the standard group, rats received free sulfasalazine (100 mg/kg; P.O. i.e., about 20 mg/rat 200 g) after induction of UC by acetic acid 3% as in group 2.
Group 4: The treatment group, where UC rats received the dose of ZnONPs loaded sulfasalazine (100 mg/kg; P.O. of the ZnONPs) containing 12.2 mg sulfasalazine/kg; P.O.
Markers estimated: • Macroscopic examination of colonic mucosa. • Inflammatory mediators such as tumor necrosis factor-α (TNF-α), interleukin 1beta (IL 1B), malondialdehyde (MBA), reduced glutathione (GSH), superoxide dismutase (SOD), caspase-1, and cyclooxygenase-2 (COX2). • Inflammatory mediators are estimated by ELIZA.

`O=C(O)c1cc(/N=N/c2ccc(S(=O)(=O)Nc3ccccn3)cc2)ccc1O` [sulfasalazine] was tested, and the “overall effect on ulcerative colitis (inflammatory mediators, healing) relative to other treatments” value was “lower than that observed for Group 4”.
